Columns and labels:
[1] = test system: Human immunodeficiency virus 1; assay: Antiviral activity against multidrug resistant HIV1 MDR/C containing protease mutant infected in human PHA-PBMs assessed as inhibition of p24 Gag protein production relative to wild type
[2] = test system: Human immunodeficiency virus 1; assay: Antiviral activity against multidrug resistant HIV1 MDR/B containing protease mutant infected in human PHA-PBMs assessed as inhibition of p24 Gag protein production relative to wild type
[3] = test system: Human immunodeficiency virus 1; assay: Antiviral activity against multidrug resistant HIV1 MDR/B containing protease mutant infected in human PHA-PBMs assessed as inhibition of p24 Gag protein production; conditions: Human immunodeficiency virus 1, MDR/B
[4] = test system: Human immunodeficiency virus 1; assay: Antiviral activity against wild type HIV1 ERS104P infected in human PHA-PBMs assessed as inhibition of p24 Gag protein production; conditions: Human immunodeficiency virus 1, ERS104P
[5] = test system: Human immunodeficiency virus 1; assay: Antiviral activity against multidrug resistant HIV1 MDR/C containing protease mutant infected in human PHA-PBMs assessed as inhibition of p24 Gag protein production; conditions: Human immunodeficiency virus 1, MDR/C
[6] = test system: Human immunodeficiency virus 1; assay: Antiviral activity against multidrug resistant HIV1 MDR/G containing protease mutant infected in human PHA-PBMs assessed as inhibition of p24 Gag protein production relative to wild type
[7] = test system: Human immunodeficiency virus 1; assay: Antiviral activity against multidrug resistant HIV1 MDR/G containing protease mutant infected in human PHA-PBMs assessed as inhibition of p24 Gag protein production; conditions: Human immunodeficiency virus 1, MDR/G
Protease = Protease (Human immunodeficiency virus 1, UniProt Q9YQ12); assay: Inhibition of wild type HIV1 protease
Protease, sequence (Q9YQ12 whole entry): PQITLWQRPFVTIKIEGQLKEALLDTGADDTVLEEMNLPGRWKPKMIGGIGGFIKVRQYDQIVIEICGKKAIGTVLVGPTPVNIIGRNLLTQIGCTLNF

[8] = test system: Human immunodeficiency virus 1; assay: Antiviral activity against HIV1 LAI infected in human MT-2 cells assessed as virus-induced cytopathic effect by MTT assay; conditions: Human immunodeficiency virus 1, LAI

Row | SMILES | Ki (Protease) [nM] | IC50 [8] [nM] | also measured
1 | CC(C)CN(C[C@@H](O)[C@H](Cc1ccccc1)NC(=O)O[C@H]1CCOC1)S(=O)(=O)c1ccc(N)cc1 |  |  | fold change (FC) [1]: 10; fold change (FC) [2]: 12; EC50 [3]: 44 nM; EC50 [4]: 37 nM; EC50 [5]: 380 nM; fold change (FC) [6]: 11; EC50 [7]: 398 nM
2 | COc1ccc(S(=O)(=O)N(CC(C)C)C[C@@H](O)[C@H](Cc2cccc(-c3cc(C)cc(C)c3)c2)NC(=O)O[C@H]2CO[C@H]3OCC[C@H]32)cc1 | 0.45 | 56 | 
3 | COc1ccc(S(=O)(=O)N(CC(C)C)C[C@@H](O)[C@H](Cc2cccc(-c3cc(OC(F)(F)F)cc(OC(F)(F)F)c3)c2)NC(=O)OC(C)(C)C)cc1 | 92.8 | > 1000 | 
4 | COc1ccc(S(=O)(=O)N(CC(C)C)C[C@@H](O)[C@H](Cc2cccc(-c3c(OC)cccc3OC)c2)NC(=O)O[C@H]2CO[C@H]3OCC[C@H]32)cc1 | 0.025 | 24 | 
5 | COc1ccc(S(=O)(=O)N(CC(C)C)C[C@@H](O)[C@H](Cc2cccc(-c3cc(C)cc(C)c3)c2)NC(=O)OC(C)(C)C)cc1 | 48.8 | > 1000 | 
6 | COc1ccc(S(=O)(=O)N(CC(C)C)C[C@@H](O)[C@H](Cc2cccc(-c3cccc(OC)c3)c2)NC(=O)O[C@H]2CO[C@H]3OCC[C@H]32)cc1 | 0.014 | 5 | 
7 | COc1ccc(S(=O)(=O)N(CC(C)C)C[C@@H](O)[C@H](Cc2cccc(-c3cc(C)cc(C)c3)c2)NC(=O)O[C@H]2CCOC2)cc1 | 0.63 | > 1000 | 
8 | COc1ccc(S(=O)(=O)N(CC(C)C)C[C@@H](O)[C@H](Cc2cccc(-c3cc(OC)cc(OC)c3)c2)NC(=O)O[C@H]2CCOC2)cc1 | 0.58 | 180 | 
9 | COc1ccc(S(=O)(=O)N(CC(C)C)C[C@@H](O)[C@H](Cc2cccc(-c3ccccc3OC)c2)NC(=O)O[C@H]2CO[C@H]3OCC[C@H]32)cc1 | 0.012 | 3 | fold change (FC) [1]: 1; fold change (FC) [2]: 8; EC50 [3]: 36 nM; EC50 [4]: 4.8 nM; EC50 [5]: 2.9 nM; fold change (FC) [6]: 1; EC50 [7]: 4.7 nM
10 | COc1ccc(S(=O)(=O)N(CC(C)C)C[C@@H](O)[C@H](Cc2cccc(-c3ccc4c(c3)OCO4)c2)NC(=O)OC(C)(C)C)cc1 | 18 | > 1000 | 
11 | COc1ccc(S(=O)(=O)N(CC(C)C)C[C@@H](O)[C@H](Cc2cccc(-c3cc(OC)cc(OC)c3)c2)NC(=O)O[C@H]2CO[C@H]3OCC[C@H]32)cc1 | 0.014 | 5 | 
12 | COc1ccc(S(=O)(=O)N(CC(C)C)C[C@@H](O)[C@H](Cc2cccc(-c3cccc(OC)c3)c2)NC(=O)O[C@H]2CCOC2)cc1 | 1.53 | > 381 | 
13 | COc1ccc(S(=O)(=O)N(CC(C)C)C[C@@H](O)[C@H](Cc2cccc(-c3cc(OC)cc(OC)c3)c2)NC(=O)OC(C)(C)C)cc1 | 0.82 | > 1000 | 
